Reference: paper PMC9044946 (Journal of Virology, 2022)
Structures can show the parent of a compound that is named as a salt.

Key:
[1] = tested on: S-mediated cell-to-cell fusion; format: cell-based; details: acceptor cells ACE2 plus TMPRSS2, camostat 120 μM
[2] = tested on: TMPRSS2-induced production of S2′; format: cell-based; details: acceptor cells ACE2 and TMPRSS2, 120 μM
[3] = orally administered three times a day; cited from earlier work

SMILES	Effect on TMPRSS2-enhanced fusion with μAS1/S2 [1]	Effect on TMPRSS2-reduced fusion with WT S [1]	Effect on enhanced TMPRSS2-induced production of S2′ with WT S [2]	Effect on COVID-19 symptoms [3]
CN(C)C(=O)COC(=O)Cc1ccc(OC(=O)c2ccc(NC(=N)N)cc2)cc1 [camostat]	largely attenuated	completely restored	eliminated	
CN(C)C(=O)COC(=O)Cc1ccc(OC(=O)c2ccc(NC(=N)N)cc2)cc1 [camostat mesylate]				did not ameliorate COVID-19 symptoms
